Organism: Rattus norvegicus
Assay: DrugMatrix - Regimen: Daily Repeat
Format: toxicity, organism-based, Sprague-Dawley
Design: regimen Daily Repeat, gender Male, age 6-8 weeks
Conditions: in vivo, iv, vehicle 100 % SALINE; for ABSOLUTE BASOPHIL / ABSOLUTE EOSINOPHIL / ABSOLUTE LYMPHOCYTE / ABSOLUTE MONOCYTE / ABSOLUTE SEGMENTED NEUTROPHIL / BASOPHIL / EOSINOPHIL / ERYTHROCYTE COUNT / HEMATOCRIT / HEMOGLOBIN / LEUKOCYTE COUNT / LYMPHOCYTE / MEAN CORPUSCULAR HEMOGLOBIN / MEAN CORPUSCULAR HEMOGLOBIN CONCENTRATION / MEAN CORPUSCULAR VOLUME / MONOCYTE / NEUTROPHIL / NUCLEATED RED BLOOD CELLS / PLATELET COUNT: tissue Blood; for ALANINE AMINOTRANSFERASE / ALBUMIN / ALKALINE PHOSPHATASE / ASPARTATE AMINOTRANSFERASE / BLOOD UREA NITROGEN / CARBON DIOXIDE / CHLORIDE / CHOLESTEROL / CREATINE PHOSPHOKINASE / CREATININE / GLUCOSE / LACTATE DEHYDROGENASE / LIPASE / PHOSPHORUS / POTASSIUM / SODIUM / TOTAL BILIRUBIN / TOTAL PROTEIN / URIC ACID: tissue Plasma
[1] = 5 mg/kg, 72 h, dose level Low, time 3 day
[2] = 5 mg/kg, 120 h, dose level Low, time 5 day
[3] = 30 mg/kg, 72 h, dose level High, time 3 day
[4] = 30 mg/kg, 120 h, dose level High, time 5 day

CNC1(c2ccccc2Cl)CCCCC1=O (configuration not stated) [KETAMINE]
ABSOLUTE BASOPHIL [1]: 0 CELLS/uL | ABSOLUTE EOSINOPHIL [1]: 51.33 CELLS/uL | ABSOLUTE LYMPHOCYTE [1]: 14067.33 CELLS/uL | ABSOLUTE MONOCYTE [1]: 102.67 CELLS/uL | ABSOLUTE SEGMENTED NEUTROPHIL [1]: 1912 CELLS/uL | BASOPHIL [1]: 0% | EOSINOPHIL [1]: 0.33% | ERYTHROCYTE COUNT [1]: 5.81 x10E6/uL | HEMATOCRIT [1]: 36.67% | HEMOGLOBIN [1]: 14.57 G/DL | LEUKOCYTE COUNT [1]: 16.13 x10E3/uL | LYMPHOCYTE [1]: 87% | MEAN CORPUSCULAR HEMOGLOBIN [1]: 25.1 pg | MEAN CORPUSCULAR HEMOGLOBIN CONCENTRATION [1]: 39.73 G/DL | MEAN CORPUSCULAR VOLUME [1]: 63.13 fL | MONOCYTE [1]: 0.67% | NEUTROPHIL [1]: 12% | NUCLEATED RED BLOOD CELLS [1]: 0 /100WBC | PLATELET COUNT [1]: 1224 x10E3/uL | ALANINE AMINOTRANSFERASE [1]: 65.67 u/L | ALBUMIN [1]: 4.37 G/DL | ALKALINE PHOSPHATASE [1]: 476.33 u/L | ASPARTATE AMINOTRANSFERASE [1]: 112 u/L | BLOOD UREA NITROGEN [1]: 16.67 mg/dL | CARBON DIOXIDE [1]: 24.33 mmol/L | CHLORIDE [1]: 102.33 MEQ/L | CHOLESTEROL [1]: 77 mg/dL | CREATINE PHOSPHOKINASE [1]: 659.67 u/L | CREATININE [1]: 0.19 mg/dL | GLUCOSE [1]: 151 mg/dL | LACTATE DEHYDROGENASE [1]: 281 u/L | LIPASE [1]: 8.67 u/L | PHOSPHORUS [1]: 13.03 mg/dL | POTASSIUM [1]: 6.82 MEQ/L | SODIUM [1]: 147.17 MEQ/L | TOTAL BILIRUBIN [1]: 0.2 mg/dL | TOTAL PROTEIN [1]: 6.1 G/DL | URIC ACID [1]: 1.77 mg/dL | ABSOLUTE BASOPHIL [2]: 0 CELLS/uL | ABSOLUTE EOSINOPHIL [2]: 0 CELLS/uL | ABSOLUTE LYMPHOCYTE [2]: 13962.33 CELLS/uL | ABSOLUTE MONOCYTE [2]: 431.67 CELLS/uL | ABSOLUTE SEGMENTED NEUTROPHIL [2]: 1839.33 CELLS/uL | BASOPHIL [2]: 0% | EOSINOPHIL [2]: 0% | ERYTHROCYTE COUNT [2]: 5.58 x10E6/uL | HEMATOCRIT [2]: 35.2% | HEMOGLOBIN [2]: 13.8 G/DL | LEUKOCYTE COUNT [2]: 16.23 x10E3/uL | LYMPHOCYTE [2]: 86% | MEAN CORPUSCULAR HEMOGLOBIN [2]: 24.77 pg | MEAN CORPUSCULAR HEMOGLOBIN CONCENTRATION [2]: 39.27 G/DL | MEAN CORPUSCULAR VOLUME [2]: 63.1 fL | MONOCYTE [2]: 2.67% | NEUTROPHIL [2]: 11.33% | NUCLEATED RED BLOOD CELLS [2]: 0 /100WBC | PLATELET COUNT [2]: 1165.33 x10E3/uL | ALANINE AMINOTRANSFERASE [2]: 62.33 u/L | ALBUMIN [2]: 4 G/DL | ALKALINE PHOSPHATASE [2]: 365.67 u/L | ASPARTATE AMINOTRANSFERASE [2]: 75.67 u/L | BLOOD UREA NITROGEN [2]: 16 mg/dL | CARBON DIOXIDE [2]: 23.67 mmol/L | CHLORIDE [2]: 103 MEQ/L | CHOLESTEROL [2]: 71 mg/dL | CREATINE PHOSPHOKINASE [2]: 194 u/L | CREATININE [2]: 0.14 mg/dL | GLUCOSE [2]: 158.33 mg/dL | LACTATE DEHYDROGENASE [2]: 81 u/L | LIPASE [2]: 8.33 u/L | PHOSPHORUS [2]: 11.53 mg/dL | POTASSIUM [2]: 6.9 MEQ/L | SODIUM [2]: 144.5 MEQ/L | TOTAL BILIRUBIN [2]: 0.2 mg/dL | TOTAL PROTEIN [2]: 6.03 G/DL | URIC ACID [2]: 1.43 mg/dL | ABSOLUTE BASOPHIL [3]: 0 CELLS/uL | ABSOLUTE EOSINOPHIL [3]: 0 CELLS/uL | ABSOLUTE LYMPHOCYTE [3]: 14382.67 CELLS/uL | ABSOLUTE MONOCYTE [3]: 155.33 CELLS/uL | ABSOLUTE SEGMENTED NEUTROPHIL [3]: 1995.33 CELLS/uL | BASOPHIL [3]: 0% | EOSINOPHIL [3]: 0% | ERYTHROCYTE COUNT [3]: 5.41 x10E6/uL | HEMATOCRIT [3]: 34.6% | HEMOGLOBIN [3]: 13.7 G/DL | LEUKOCYTE COUNT [3]: 16.53 x10E3/uL | LYMPHOCYTE [3]: 87.33% | MEAN CORPUSCULAR HEMOGLOBIN [3]: 25.3 pg | MEAN CORPUSCULAR HEMOGLOBIN CONCENTRATION [3]: 39.6 G/DL | MEAN CORPUSCULAR VOLUME [3]: 63.93 fL | MONOCYTE [3]: 1% | NEUTROPHIL [3]: 11.67% | NUCLEATED RED BLOOD CELLS [3]: 0 /100WBC | PLATELET COUNT [3]: 1095 x10E3/uL | ALANINE AMINOTRANSFERASE [3]: 62.67 u/L | ALBUMIN [3]: 4.23 G/DL | ALKALINE PHOSPHATASE [3]: 372.33 u/L | ASPARTATE AMINOTRANSFERASE [3]: 96.67 u/L | BLOOD UREA NITROGEN [3]: 17 mg/dL | CARBON DIOXIDE [3]: 19 mmol/L | CHLORIDE [3]: 101.67 MEQ/L | CHOLESTEROL [3]: 72.67 mg/dL | CREATINE PHOSPHOKINASE [3]: 366.67 u/L | CREATININE [3]: 0.23 mg/dL | GLUCOSE [3]: 202.67 mg/dL | LACTATE DEHYDROGENASE [3]: 284.33 u/L | LIPASE [3]: 10 u/L | PHOSPHORUS [3]: 13.57 mg/dL | POTASSIUM [3]: 5.66 MEQ/L | SODIUM [3]: 144.1 MEQ/L | TOTAL BILIRUBIN [3]: 0.2 mg/dL | TOTAL PROTEIN [3]: 6 G/DL | URIC ACID [3]: 2.03 mg/dL | ABSOLUTE BASOPHIL [4]: 0 CELLS/uL | ABSOLUTE EOSINOPHIL [4]: 79.33 CELLS/uL | ABSOLUTE LYMPHOCYTE [4]: 16271.33 CELLS/uL | ABSOLUTE MONOCYTE [4]: 278 CELLS/uL | ABSOLUTE SEGMENTED NEUTROPHIL [4]: 1271.33 CELLS/uL | BASOPHIL [4]: 0% | EOSINOPHIL [4]: 0.33% | ERYTHROCYTE COUNT [4]: 5.66 x10E6/uL | HEMATOCRIT [4]: 35.67% | HEMOGLOBIN [4]: 14 G/DL | LEUKOCYTE COUNT [4]: 17.9 x10E3/uL | LYMPHOCYTE [4]: 92% | MEAN CORPUSCULAR HEMOGLOBIN [4]: 24.8 pg | MEAN CORPUSCULAR HEMOGLOBIN CONCENTRATION [4]: 39.27 G/DL | MEAN CORPUSCULAR VOLUME [4]: 63.03 fL | MONOCYTE [4]: 1.33% | NEUTROPHIL [4]: 6.33% | NUCLEATED RED BLOOD CELLS [4]: 0 /100WBC | PLATELET COUNT [4]: 1154.33 x10E3/uL | ALANINE AMINOTRANSFERASE [4]: 51 u/L | ALBUMIN [4]: 4.2 G/DL | ALKALINE PHOSPHATASE [4]: 328.67 u/L | ASPARTATE AMINOTRANSFERASE [4]: 76.67 u/L | BLOOD UREA NITROGEN [4]: 16.33 mg/dL | CARBON DIOXIDE [4]: 22.67 mmol/L | CHLORIDE [4]: 105 MEQ/L | CHOLESTEROL [4]: 69.67 mg/dL | CREATINE PHOSPHOKINASE [4]: 264.33 u/L | CREATININE [4]: 0.2 mg/dL | GLUCOSE [4]: 179.33 mg/dL | LACTATE DEHYDROGENASE [4]: 119.67 u/L | LIPASE [4]: 8.67 u/L | PHOSPHORUS [4]: 12.4 mg/dL | POTASSIUM [4]: 6.35 MEQ/L | SODIUM [4]: 146.23 MEQ/L | TOTAL BILIRUBIN [4]: 0.17 mg/dL | TOTAL PROTEIN [4]: 6.1 G/DL | URIC ACID [4]: 1.3 mg/dL

From ChEMBL document CHEMBL3885881, “DrugMatrix”
